Data taken from ChEMBL document CHEMBL4811314, “Synthesis, biochemical, and biological evaluation of C2 linkage derivatives of amino sugars, inhibitors of glucokinase from Trypanosoma cruzi” (Bioorg Med Chem Lett, 2021).

What was measured:
Trypanosoma cruzi [1] = assay: Antitrypanosomal activity against Trypanosoma cruzi Tulahuen amastigotes infected in mouse NIH/3T3 cells assessed as parasite growth inhibition incubated for 4 days in glucose rich DMEM medium; assay type: functional, organism-based; details: NIH3T3, 96 h
Saccharomyces cerevisiae = assay: Inhibition of Saccharomyces cerevisiae G6PDH at 20 uM relative to control
[2] = Inhibition of His6-tagged Trypanosoma cruzi glucokinase using D-glucose and ATP as substrates
Hexokinase-4 = molecular target: T1, Hexokinase-4 (Homo sapiens, UniProt P35557); assay: Inhibition of human hexokinase-4 at 20 uM relative to control
T1 sequence (P35557 whole entry): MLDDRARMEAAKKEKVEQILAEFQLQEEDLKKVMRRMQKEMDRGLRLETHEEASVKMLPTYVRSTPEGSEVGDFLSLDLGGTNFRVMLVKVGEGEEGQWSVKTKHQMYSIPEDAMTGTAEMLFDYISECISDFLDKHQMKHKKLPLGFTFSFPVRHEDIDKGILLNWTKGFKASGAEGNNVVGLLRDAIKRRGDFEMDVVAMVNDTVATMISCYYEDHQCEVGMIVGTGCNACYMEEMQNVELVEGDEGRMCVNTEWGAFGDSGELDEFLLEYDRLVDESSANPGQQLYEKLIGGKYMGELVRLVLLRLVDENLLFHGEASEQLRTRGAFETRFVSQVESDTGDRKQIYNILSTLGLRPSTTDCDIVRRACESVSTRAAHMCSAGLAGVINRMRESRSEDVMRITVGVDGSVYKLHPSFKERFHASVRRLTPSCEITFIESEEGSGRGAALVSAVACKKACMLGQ

Trypanosoma cruzi [3] = assay: Antitrypanosomal activity against intracellular Trypanosoma cruzi Tulahuen […] infected in mouse NIH/3T3 cells assessed as parasite growth inhibition; assay type: functional, organism-based; details: NIH3T3
[4] = Inhibition of Trypanosoma cruzi glucokinase
[5] = Competitive inhibition of Trypanosoma cruzi glucokinase using D-glucose as substrate in presence of ATP by Lineweaver-Burk plot analysis
Trypanosoma cruzi [6] = assay: Competitive inhibition of Trypanosoma cruzi glucokinase assessed as Km using varying levels of D-glucose as substrate in presence of ATP by Lineweaver-Burk plot analysis
Trypanosoma cruzi [7] = assay: Competitive inhibition of Trypanosoma cruzi glucokinase assessed as Vmax using varying levels of D-glucose as substrate in presence of ATP by Lineweaver-Burk plot analysis

## O=C(N[C@H]1C(O)O[C@H](CO)[C@@H](O)[C@@H]1O)c1ccccc1 (stereo partly specified)
Trypanosoma cruzi [1]
  IC50: 16.1 µM
Saccharomyces cerevisiae
  inhibition: 0.5%
[2]
  Ki: 32 µM
Hexokinase-4
  inhibition at 20 µM: 39.2%

## O=C(N[C@H]1C(O)O[C@H](CO)[C@@H](O)[C@@H]1O)c1ccc(CCl)cc1 (stereo partly specified)
Saccharomyces cerevisiae
  inhibition: 0%
Trypanosoma cruzi [3]
  IC50: 52.9 µM
[4]
  Ki: > 500 µM
Hexokinase-4
  inhibition at 20 µM: 35.8%

## O=C(N[C@H]1C(O)O[C@H](CO)[C@H](O)[C@@H]1O)c1cccc(Br)c1 (stereo partly specified)
Saccharomyces cerevisiae
  inhibition: 0%
Trypanosoma cruzi [3]
  IC50: 19.9 µM
[4]
  Ki: > 500 µM
Hexokinase-4
  inhibition at 20 µM: 29.8%

## O=C(N[C@H]1C(O)O[C@H](CO)[C@H](O)[C@@H]1O)c1ccoc1 (stereo partly specified)
Saccharomyces cerevisiae
  inhibition: 0%
Trypanosoma cruzi [3]
  IC50: 36.4 µM
[4]
  Ki: > 500 µM
Hexokinase-4
  inhibition at 20 µM: 47.2%

## O=C(N[C@H]1C(O)O[C@H](CO)[C@@H](O)[C@@H]1O)c1ccoc1 (stereo partly specified)
[5]
  Ki: 15.2 µM
Saccharomyces cerevisiae
  inhibition: 0%
Trypanosoma cruzi [3]
  IC50: 49.9 µM
Trypanosoma cruzi [6]
  Km: 840 µM
[4]
  Ki: 15.2 µM
Hexokinase-4
  inhibition at 20 µM: 41.2%
Trypanosoma cruzi [7]
  Vmax: 6.3 10^-5M/min

## O=C(N[C@@H]1C(O)O[C@H](CO)[C@@H](O)[C@@H]1O)c1cccc(Br)c1 (stereo partly specified)
Saccharomyces cerevisiae
  inhibition: 0%
Trypanosoma cruzi [3]
  IC50: 38.4 µM
[4]
  Ki: 320 µM
Hexokinase-4
  inhibition at 20 µM: 27%

## O=C(N[C@H]1C(O)O[C@H](CO)[C@H](O)[C@@H]1O)c1ccccc1 (stereo partly specified)
Saccharomyces cerevisiae
  inhibition: 0%
Trypanosoma cruzi [3]
  IC50: 55.3 µM
[4]
  Ki: > 500 µM
Hexokinase-4
  inhibition at 20 µM: 37.8%

## Cc1ccc(C(=O)N[C@@H]2C(O)O[C@H](CO)[C@@H](O)[C@@H]2O)o1 (stereo partly specified)
Saccharomyces cerevisiae
  inhibition: 0%
Trypanosoma cruzi [3]
  IC50: > 80 µM
[4]
  Ki: 481 µM
Hexokinase-4
  inhibition at 20 µM: 48.8%

## O=C(N[C@H]1C(O)O[C@H](CO)[C@@H](O)[C@@H]1O)OCc1ccccc1 (stereo partly specified)
Trypanosoma cruzi [1]
  IC50: 48.7 µM
Saccharomyces cerevisiae
  inhibition: 0%
[2]
  Ki: 0.71 µM
Hexokinase-4
  inhibition at 20 µM: 2%

## O=C(N[C@@H]1C(O)O[C@H](CO)[C@@H](O)[C@@H]1O)c1ccccc1 (stereo partly specified)
Saccharomyces cerevisiae
  inhibition: 0%
Trypanosoma cruzi [3]
  IC50: 43.5 µM
[4]
  Ki: > 500 µM
Hexokinase-4
  inhibition at 20 µM: 55.5%

## O=C(N[C@@H]1C(O)O[C@H](CO)[C@@H](O)[C@@H]1O)c1ccc(CCl)cc1 (stereo partly specified)
Saccharomyces cerevisiae
  inhibition: 0%
Trypanosoma cruzi [3]
  IC50: 38.4 µM
[4]
  Ki: > 500 µM
Hexokinase-4
  inhibition at 20 µM: 28.1%

## O=C(N[C@H]1C(O)O[C@H](CO)[C@@H](O)[C@@H]1O)c1cccc(Br)c1 (stereo partly specified)
Saccharomyces cerevisiae
  inhibition: 0%
Trypanosoma cruzi [3]
  IC50: 66.2 µM
[4]
  Ki: 18 µM
Hexokinase-4
  inhibition at 20 µM: 31.2%

## C[C@@H]1[C@H](O)[C@@H](C)/C=C/C=C/C=C/C=C/C=C/C=C/C=C/[C@H](O[C@@H]2O[C@H](C)[C@@H](O)[C@H](N)[C@@H]2O)C[C@@H]2O[C@](O)(C[C@@H](O)C[C@@H](O)[C@H](O)CC[C@@H](O)C[C@@H](O)CC(=O)O[C@H]1C)C[C@H](O)[C@H]2C(=O)O [AMPHOTERICIN B]
Trypanosoma cruzi [3]
  IC50: 1.85 µM

## O=C(Cn1ccnc1[N+](=O)[O-])NCc1ccccc1 [BENZNIDAZOLE]
Trypanosoma cruzi [1]
  IC50: 1.12 µM

## O=C(N[C@H]1C(O)O[C@H](CO)[C@H](O)[C@@H]1O)c1cc2ccccc2o1 (stereo partly specified)
Saccharomyces cerevisiae
  inhibition: 0%
Trypanosoma cruzi [3]
  IC50: 66.6 µM
[4]
  Ki: > 500 µM
Hexokinase-4
  inhibition at 20 µM: 36.5%

## O=C(N[C@H]1C(O)O[C@H](CO)[C@@H](O)[C@@H]1O)c1cc2ccccc2o1 (stereo partly specified)
[5]
  Ki: 107 µM
Saccharomyces cerevisiae
  inhibition: 0%
Trypanosoma cruzi [3]
  IC50: 27.2 µM
Trypanosoma cruzi [6]
  Km: 890 µM
[4]
  Ki: 107 µM
Hexokinase-4
  inhibition at 20 µM: 25.2%
Trypanosoma cruzi [7]
  Vmax: 8.1 10^-5M/min

## O=C(N[C@@H]1C(O)O[C@H](CO)[C@@H](O)[C@@H]1O)c1ccoc1 (stereo partly specified)
Saccharomyces cerevisiae
  inhibition: 0%
Trypanosoma cruzi [3]
  IC50: 67.5 µM
[4]
  Ki: > 500 µM
Hexokinase-4
  inhibition at 20 µM: 31.6%

## O=C(N[C@H]1C(O)O[C@H](CO)[C@H](O)[C@@H]1O)c1ccc(CCl)cc1 (stereo partly specified)
Saccharomyces cerevisiae
  inhibition: 0%
Trypanosoma cruzi [3]
  IC50: 37.9 µM
[4]
  Ki: > 500 µM
Hexokinase-4
  inhibition at 20 µM: 8.3%

## O=C(N[C@@H]1C(O)O[C@H](CO)[C@@H](O)[C@@H]1O)c1cc2ccccc2o1 (stereo partly specified)
Saccharomyces cerevisiae
  inhibition: 0%
Trypanosoma cruzi [3]
  IC50: 42.5 µM
[4]
  Ki: > 500 µM
Hexokinase-4
  inhibition at 20 µM: 12.4%
